{
  "source": "paper PMC9241695",
  "about": "“Selective Metal Chelation by a Thiosemicarbazone Derivative Interferes with Mitochondrial Respiration and Ribosome Biogenesis in Candida albicans” (Microbiology Spectrum, 2022)",
  "key": {"C. albicans SC5314 [1]": {"system": "C. albicans SC5314", "test": "Rescue effect of exogenous metal ions on MIC of 19ak", "format": "cell-based", "conditions": "Candida albicans", "experimental": "h (for C. albicans, C. krusei, C. tropicalis, C. parapsilosis) or 48 h (for C. neoformans, A. fumigatus). The MIC was determined based on visible growth inhibition compared with the control. All experiments were performed in duplicate. […]\nRescue effect of exogenous metal ions on fungal growth inhibition by 19ak.\nSince the effects of thiosemicarbazone may be due to binding of intracellular metal ions, we investigated the impact of adding metal ions to the medium on the inhibitory effect of 19ak by performing antifungal susceptibility testing as described above in the presence of 50 μM, 100 μM, and 200 μM ZnSO4, FeSO4, and FeCl3. […]"}, "C. albicans SC5314 [2]": {"system": "C. albicans SC5314", "test": "Drug resistance study by serial passage", "format": "cell-based, Candida albicans", "conditions": "RPMI 1640 medium, 40-day period, passages at 0.5 × MIC"}, "C. albicans SC5314 cells": {"system": "C. albicans SC5314 cells", "test": "Intracellular free iron levels using FeRhoNox-1", "format": "cell-based, Candida albicans", "conditions": "0.5 μg/mL, 6 h, compared with untreated cells", "experimental": "FeRhoNox-1 is a commercially available fluorescent probe that specifically binds Fe^2+ and is used to measure intracellular Fe^2 + content. C. albicans SC5314 cells cultured overnight were diluted to roughly 1 × 10^6 cells/mL in RPMI 1640 medium and challenged with various doses of 19ak for 6 h. Next, the cells were fixed with 4% paraformaldehyde for 1 h. After washing three times with PBS, the cells were stained with 5 μM FeRhoNox-1 for 30 min and analyzed by flow cytometry (Becton, Dickinson, CA, USA). Mammalian cells culture is according to the method described in Cytotoxicity testing which was described in Supplemental material in detail. After 12 h of treatment with different concentrations of 19ak, the supernatant was discarded and washed three times with PBS. Cells were collected after staining with FeRhoNox-1 for 30 min in the dark, and the fluorescence intensity of stained cells was analyzed by flow cytometry."}, "[3]": {"system": "C. albicans CAF2-1, zap1Δ/Δ, zap1Δ/Δ+ pZAP1", "test": "Growth of zap1 mutant, complemented and wild-type strains under 19ak", "format": "cell-based, Candida albicans", "experimental": "FIG 6 Effect of 19ak on ribosome biogenesis in C. albicans. (A to C) The wild strain CAF2-1, the mutant strain zap1Δ/Δ and its complemented strain zap1Δ/Δ+ pZAP1 were adjusted to 1 × 10^5 cells/mL in RPMI 1640 medium and treated with 0.25 or 0.5 μg/mL 19ak for 15 h at 30°C. Cell growth was monitored by detecting the optical density at 600 nm in a microplate reader. (A) Cells that were not treated with 19ak as a control. (B) Cells treated with 0.25 μg/mL 19ak. (C) Cells treated with 0.5 μg/mL 19ak. Each point represents the mean of three replicates. The OD600 values at the final detection point were used to analyze significant differences. (D) C. albicans zap1Δ/Δ and its complemented strain zap1Δ/Δ + pZAP1 were treated with 0.5 μg/mL 19ak for 6 h at 30°C. The transcription levels of several genes associated with ribosomal biosynthesis were determined by qPCR. The bars represent means ± SD from three independent experiments. *, P < 0.05; **, P < 0.01; ***, P < 0.001. ns, nonsignificance. (E) qPCR analysis of the expression of genes associated with iron and zinc homeostasis after TPEN treatment. C. albicans SC5314 was cultured in RPMI 1640 medium and treated with 0.05 μg/mL or 0.2 μg/mL TPEN for 6 h at 30°C for qPCR analysis."}, "C. albicans SC5314 [4]": {"system": "C. albicans SC5314", "test": "MIC of 19ak in the presence of H2O2", "format": "cell-based", "conditions": "Candida albicans, read-out: MIC against C. albicans SC5314 (Table S3)", "experimental": "Influence of oxidant or antioxidant molecules on 19ak activity. The MIC of\n19ak in the presence of 1–2 mM H2O2 was measured using the broth microdilution\nassay as described above. […]"}},
  "data": [
    {"molecule": "C/C(=N\\NC(=S)N(C)C)c1ccccn1", "note": "[Compound 19ak]", "values": [
      {"measurement": "MIC", "setting": "C. albicans SC5314 [1]; SC5314, + 50 μM Fe^2+ (FeSO4), read-out: MIC against C. albicans SC5314", "result": 1, "unit": "µg/mL"},
      {"measurement": "MIC", "setting": "C. albicans SC5314 [1]; SC5314, + 50 μM Fe^3+ (FeCl3), read-out: MIC against C. albicans SC5314", "result": 0.25, "unit": "µg/mL"},
      {"measurement": "MIC", "setting": "C. albicans SC5314 [1]; SC5314, + 50 μM Zn^2+ (ZnSO4), read-out: MIC against C. albicans SC5314", "result": 4, "unit": "µg/mL"},
      {"measurement": "MIC", "setting": "C. albicans SC5314 [1]; SC5314, + 100 μM Fe^2+ (FeSO4), read-out: MIC against C. albicans SC5314", "result": 1, "unit": "µg/mL"},
      {"measurement": "MIC", "setting": "C. albicans SC5314 [1]; SC5314, + 100 μM Fe^3+ (FeCl3), read-out: MIC against C. albicans SC5314", "result": 0.25, "unit": "µg/mL"},
      {"measurement": "MIC", "setting": "C. albicans SC5314 [1]; SC5314, + 100 μM Zn^2+ (ZnSO4), read-out: MIC against C. albicans SC5314", "result": 4, "unit": "µg/mL"},
      {"measurement": "MIC", "setting": "C. albicans SC5314 [1]; SC5314, + 200 μM Fe^2+ (FeSO4), read-out: MIC against C. albicans SC5314", "result": 1, "unit": "µg/mL"},
      {"measurement": "MIC", "setting": "C. albicans SC5314 [1]; SC5314, + 200 μM Fe^3+ (FeCl3), read-out: MIC against C. albicans SC5314", "result": 0.5, "unit": "µg/mL"},
      {"measurement": "MIC", "setting": "C. albicans SC5314 [1]; SC5314, + 200 μM Zn^2+ (ZnSO4), read-out: MIC against C. albicans SC5314", "result": 4, "unit": "µg/mL"},
      {"measurement": "MIC", "setting": "C. albicans SC5314 [1]; SC5314, read-out: MIC against C. albicans SC5314", "result": 0.125, "unit": "µg/mL"},
      {"measurement": "Change of MIC after repeated exposure", "setting": "C. albicans SC5314 [2]", "result": "did not alter the MIC"},
      {"measurement": "Intracellular labile ferrous ions (FeRhoNox-1)", "setting": "C. albicans SC5314 cells", "result": "obvious drop"},
      {"measurement": "Activity against CAF2-1, zap1Δ/Δ and complemented strain with exogenous Zn^2+", "setting": "[3]; 100 μM Zn^2+ added", "result": "lost the activities"},
      {"measurement": "Growth of zap1 mutant versus complemented strain", "setting": "[3]; 0.25 or 0.5 μg/mL, 15 h, 30°C", "result": "more severe growth defects"},
      {"measurement": "MIC", "setting": "C. albicans SC5314 [4]; SC5314, +1 mM H2O2", "result": 0.25, "unit": "µg/mL"},
      {"measurement": "MIC", "setting": "C. albicans SC5314 [4]; SC5314, +2 mM H2O2", "result": 0.5, "unit": "µg/mL"},
      {"measurement": "MIC", "setting": "C. albicans SC5314 [4]; SC5314, without H2O2", "result": 0.125, "unit": "µg/mL"}
    ]}
  ]
}
